According to patent US9556179B2 (BRISTOL-MYERS SQUIBB COMPANY, priority 2012, dated 2017):

Tests used:
CK1ε = CK1ε (Homo sapiens (Human), UniProt P49674); experiment: CK1ε kinase assay (Caliper LABCHIP electrophoretic separation of fluoresceinated peptide substrate and product); assay type: biochemical; details: 200 pM enzyme, 50 μM ATP, 22 hours at room temperature
Procedure, shortened: (§1)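 IC50 values were obtained by non-linear regression from eleven-concentration titrations. The kinase reactions were incubated for 22 hours at room temperature before termination with 35 mM EDTA.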

CK1δ = CK1δ (Homo sapiens (Human), UniProt P48730); experiment: CK1δ kinase assay (Caliper LABCHIP electrophoretic separation of fluoresceinated peptide substrate and product); assay type: biochemical; details: 200 pM enzyme, 50 μM ATP, 22 hours at room temperature
Procedure, shortened: as §1

Chain of CK1δ (P48730 whole entry): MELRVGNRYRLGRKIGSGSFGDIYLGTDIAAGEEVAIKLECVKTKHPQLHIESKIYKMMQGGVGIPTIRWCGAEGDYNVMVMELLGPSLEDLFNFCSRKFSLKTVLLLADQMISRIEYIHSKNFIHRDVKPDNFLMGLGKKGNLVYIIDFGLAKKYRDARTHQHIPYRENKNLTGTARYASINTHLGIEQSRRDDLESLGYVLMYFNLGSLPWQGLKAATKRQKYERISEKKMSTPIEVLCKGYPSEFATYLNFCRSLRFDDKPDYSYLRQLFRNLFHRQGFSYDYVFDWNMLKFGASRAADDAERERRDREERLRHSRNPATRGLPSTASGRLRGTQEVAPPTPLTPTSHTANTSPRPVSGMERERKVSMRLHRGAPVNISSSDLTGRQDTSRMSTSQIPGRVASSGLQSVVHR
Chain of CK1ε (P49674 whole entry): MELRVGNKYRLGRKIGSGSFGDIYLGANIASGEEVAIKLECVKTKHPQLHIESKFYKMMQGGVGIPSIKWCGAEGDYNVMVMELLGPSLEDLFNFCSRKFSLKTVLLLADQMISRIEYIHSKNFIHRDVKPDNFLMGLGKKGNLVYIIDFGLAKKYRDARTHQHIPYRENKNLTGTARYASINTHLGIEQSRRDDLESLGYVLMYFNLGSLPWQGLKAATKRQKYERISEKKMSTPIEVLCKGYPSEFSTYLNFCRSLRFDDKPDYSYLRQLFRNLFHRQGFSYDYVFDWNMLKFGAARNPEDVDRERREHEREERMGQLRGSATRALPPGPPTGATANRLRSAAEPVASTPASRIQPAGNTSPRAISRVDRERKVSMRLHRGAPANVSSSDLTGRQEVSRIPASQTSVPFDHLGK

| IC50 (CK1ε) | IC50 (CK1δ) | Compound |
| --- | --- | --- |
| 2.3 nM | 0.1 nM | CC(C)(C)C(=O)N1CCn2c(nc(-c3ccc(F)cc3)c2-c2ccc3nc(NC(=O)c4ccnc(F)c4)cn3n2)C1 [Compound 464, 2-Fluoro-N-(6-(2-(4-fluorophenyl)-7-pivaloyl-5,6,7,8-tetrahydroimidazo[1,2-a]pyrazin-3-yl)imidazo[1,2-b]pyridazin-2-yl)isonicotinamide] |
| 5 nM | 0.6 nM | CC(C)(C(=O)N1CCn2c(nc(-c3ccc(F)cc3)c2-c2ccc3nc(NC(=O)c4ccnc(F)c4)cn3n2)C1)C(F)(F)F [Compound 465, 2-Fluoro-N-(6-(2-(4-fluorophenyl)-7-(3,3,3-trifluoro-2,2-dimethylpropanoyl)-5,6,7,8-tetrahydroimidazo[1,2-a]pyrazin-3-yl)imidazo[1,2-b]pyridazin-2-yl)isonicotinamide] |
| 1.5 nM | 0.2 nM | O=C(Nc1cn2nc(-c3c(-c4ccc(F)cc4)nc4n3CCN(C(=O)C3CC3(F)F)C4)ccc2n1)c1ccnc(F)c1 (centres unmarked) [Compound 466, N-(6-(7-(2,2-Difluorocyclopropanecarbonyl)-2-(4-fluorophenyl)-5,6,7,8-tetrahydroimidazo[1,2-a]pyrazin-3-yl)imidazo[1,2-b]pyridazin-2-yl)-2-fluoroisonicotinamide] |
| 6.1 nM | 0.8 nM | O=C(Nc1cn2nc(-c3c(-c4ccc(F)cc4)nc4n3CCN(C(=O)C3(C(F)(F)F)CCC3)C4)ccc2n1)c1ccnc(F)c1 [Compound 467, 2-Fluoro-N-(6-(2-(4-fluorophenyl)-7-(1-(trifluoromethyl)cyclobutanecarbonyl)-5,6,7,8-tetrahydroimidazo[1,2-a]pyrazin-3-yl)imidazo[1,2-b]pyridazin-2-yl)isonicotinamide] |
| 3.9 nM | 0.5 nM | CC1(C(=O)N2CCn3c(nc(-c4ccc(F)cc4)c3-c3ccc4nc(NC(=O)c5ccnc(F)c5)cn4n3)C2)COC1 [Compound 468, 2-Fluoro-N-(6-(2-(4-fluorophenyl)-7-(3-methyloxetane-3-carbonyl)-5,6,7,8-tetrahydroimidazo[1,2-a]pyrazin-3-yl)imidazo[1,2-b]pyridazin-2-yl)isonicotinamide] |
| 12.9 nM | 2.3 nM | O=C(Nc1cn2nc(-c3c(-c4ccc(F)cc4)nc4n3CCN(C(=O)C3CC3)C4)ccc2n1)c1ccnc(F)c1 [Compound 469, N-(6-(7-(Cyclopropanecarbonyl)-2-(4-fluorophenyl)-5,6,7,8-tetrahydroimidazo[1,2-a]pyrazin-3-yl)imidazo[1,2-b]pyridazin-2-yl)-2-fluoroisonicotinamide] |
| 8.1 nM | 1.1 nM | CC(C)(O)C(=O)N1CCn2c(nc(-c3ccc(F)cc3)c2-c2ccc3nc(NC(=O)c4ccnc(F)c4)cn3n2)C1 [Compound 470, 2-Fluoro-N-(6-(2-(4-fluorophenyl)-7-(2-hydroxy-2-methylpropanoyl)-5,6,7,8-tetrahydroimidazo[1,2-a]pyrazin-3-yl)imidazo[1,2-b]pyridazin-2-yl)isonicotinamide] |
| 3.5 nM | 0.5 nM | N#CC1(C(=O)N2CCn3c(nc(-c4ccc(F)cc4)c3-c3ccc4nc(NC(=O)c5ccnc(F)c5)cn4n3)C2)CC1 [Compound 471, N-(6-(7-(1-Cyanocyclopropanecarbonyl)-2-(4-fluorophenyl)-5,6,7,8-tetrahydroimidazo[1,2-a]pyrazin-3-yl)imidazo[1,2-b]pyridazin-2-yl)-2-fluoroisonicotinamide] |
| 4.5 nM | 0.6 nM | O=C(Nc1cn2nc(-c3c(-c4ccc(F)cc4)nc4n3CCN(C(=O)C3(C(F)(F)F)CC3)C4)ccc2n1)c1ccnc(F)c1 [Compound 472, 2-Fluoro-N-(6-(2-(4-fluorophenyl)-7-(1-(trifluoromethyl)cyclopropanecarbonyl)-5,6,7,8-tetrahydroimidazo[1,2-a]pyrazin-3-yl)imidazo[1,2-b]pyridazin-2-yl)isonicotinamide] |
| 2.9 nM | 0.5 nM | CC1(C)CC1C(=O)N1CCn2c(nc(-c3ccc(F)cc3)c2-c2ccc3nc(NC(=O)c4ccnc(F)c4)cn3n2)C1 (centres unmarked) [Compound 473, N-(6-(7-(2,2-Dimethylcyclopropanecarbonyl)-2-(4-fluorophenyl)-5,6,7,8-tetrahydroimidazo[1,2-a]pyrazin-3-yl)imidazo[1,2-b]pyridazin-2-yl)-2-fluoroisonicotinamide] |

The remaining lines, values behind:

| Compound | IC50 (CK1ε) | IC50 (CK1δ) |
| --- | --- | --- |
| O=C(Nc1cn2nc(-c3c(-c4ccc(F)cc4)nc4n3CCCC4)ccc2n1)c1cc(F)nc(F)c1 [Compound 445, 2,6-Difluoro-N-(6-(2-(4-fluorophenyl)-5,6,7,8-tetrahydroimidazo[1,2-a]pyridin-3-yl)imidazo[1,2-b]pyridazin-2-yl)isonicotinamide] | 4.7 nM | 0.4 nM |
| O=C(Nc1cn2nc(-c3c(-c4ccc(F)cc4)nc4n3CCOC4)ccc2n1)c1ccnc(F)c1 [Compound 447, 2-Fluoro-N-(6-(2-(4-fluorophenyl)-6,8-dihydro-5H-imidazo[2,1-c][1,4]oxazin-3-yl)imidazo[1,2-b]pyridazin-2-yl)isonicotinamide] | 5.8 nM | 0.4 nM |
| O=C(Nc1cn2nc(-c3c(-c4ccc(F)cc4)nc4n3CCOC4)ccc2n1)c1ccncc1 [Compound 448, N-(6-(2-(4-Fluorophenyl)-6,8-dihydro-5H-imidazo[2,1-c][1,4]oxazin-3-yl)imidazo[1,2-b]pyridazin-2-yl)isonicotinamide] | 3.6 nM | 0.4 nM |
| O=C(Nc1cn2nc(-c3c(-c4ccc(F)cc4)nc4n3CCOC4)ccc2n1)c1cc(F)nc(F)c1 [Compound 449, 2,6-Difluoro-N-(6-(2-(4-fluorophenyl)-6,8-dihydro-5H-imidazo[2,1-c][1,4]oxazin-3-yl)imidazo[1,2-b]pyridazin-2-yl)isonicotinamide] | 9 nM | 0.7 nM |
| O=C(Nc1cn2nc(-c3c(-c4ccc(F)cc4)nc4n3CCOC4)ccc2n1)c1ccnc(N2CCOCC2)c1 [Compound 450, N-(6-(2-(4-Fluorophenyl)-6,8-dihydro-5H-imidazo[2,1-c][1,4]oxazin-3-yl)imidazo[1,2-b]pyridazin-2-yl)-2-morpholinoisonicotinamide] | 6.9 nM | 0.7 nM |
| O=C(Nc1cn2nc(-c3c(-c4ccc(F)cc4)nc4n3CCOC4)ccc2n1)c1cccc(-c2cccnc2)c1 [Compound 451, N-(6-(2-(4-Fluorophenyl)-6,8-dihydro-5H-imidazo[2,1-c][1,4]oxazin-3-yl)imidazo[1,2-b]pyridazin-2-yl)-3-(pyridin-3-yl)benzamide] | 4.6 nM | 0.4 nM |
| O=C(Nc1cn2nc(-c3c(-c4ccc(F)cc4)nc4ccc(N5CCOCC5)cn34)ccc2n1)c1ccnc(F)c1 [Compound 452, 2-Fluoro-N-(6-(2-(4-fluorophenyl)-6-morpholinoimidazo[1,2-a]pyridin-3-yl)imidazo[1,2-b]pyridazin-2-yl)isonicotinamide] | 1.5 nM | 0.3 nM |
| O=C(Nc1cn2nc(-c3c(-c4ccc(F)cc4)nc4n3CCNC4)ccc2n1)c1ccncc1 [Compound 456, N-(6-(2-(4-Fluorophenyl)-5,6,7,8-tetrahydroimidazo[1,2-a]pyrazin-3-yl)imidazo[1,2-b]pyridazin-2-yl)isonicotinamide] | 7 nM | 0.9 nM |
| O=C(Nc1cn2nc(-c3c(-c4ccc(F)cc4)nc4n3CCNC4)ccc2n1)c1cc(F)nc(F)c1 [Compound 457, 2,6-Difluoro-N-(6-(2-(4-fluorophenyl)-5,6,7,8-tetrahydroimidazo[1,2-a]pyrazin-3-yl)imidazo[1,2-b]pyridazin-2-yl)isonicotinamide] | 8.5 nM | 0.5 nM |
| O=C(Nc1cn2nc(-c3c(-c4ccc(F)cc4)nc4n3CCNC4)ccc2n1)c1ccnc(N2CCOCC2)c1 [Compound 458, N-(6-(2-(4-Fluorophenyl)-5,6,7,8-tetrahydroimidazo[1,2-a]pyrazin-3-yl)imidazo[1,2-b]pyridazin-2-yl)-2-morpholinoisonicotinamide] | 3.7 nM | 0.3 nM |
| O=C(Nc1cn2nc(-c3c(-c4ccc(F)cc4)nc4n3CCNC4)ccc2n1)c1cccc(-c2cccnc2)c1 [Compound 459, N-(6-(2-(4-Fluorophenyl)-5,6,7,8-tetrahydroimidazo[1,2-a]pyrazin-3-yl)imidazo[1,2-b]pyridazin-2-yl)-3-(pyridin-3-yl)benzamide] | 2.6 nM | 0.3 nM |
| CC(=O)N1CCn2c(nc(-c3ccc(F)cc3)c2-c2ccc3nc(NC(=O)c4ccnc(F)c4)cn3n2)C1 [Compound 460, N-(6-(7-Acetyl-2-(4-fluorophenyl)-5,6,7,8-tetrahydroimidazo[1,2-a]pyrazin-3-yl)imidazo[1,2-b]pyridazin-2-yl)-2-fluoroisonicotinamide] | 3.7 nM | 0.6 nM |
| O=C(Nc1cn2nc(-c3c(-c4ccc(F)cc4)nc4n3CCN(C(=O)CC(F)(F)F)C4)ccc2n1)c1ccnc(F)c1 [Compound 461, 2-Fluoro-N-(6-(2-(4-fluorophenyl)-7-(3,3,3-trifluoropropanoyl)-5,6,7,8-tetrahydroimidazo[1,2-a]pyrazin-3-yl)imidazo[1,2-b]pyridazin-2-yl)isonicotinamide] | 2.6 nM | 0.6 nM |
| O=C(Nc1cn2nc(-c3c(-c4ccc(F)cc4)nc4n3CCN(C(=O)CCC(F)(F)F)C4)ccc2n1)c1ccnc(F)c1 [Compound 462, 2-Fluoro-N-(6-(2-(4-fluorophenyl)-7-(4,4,4-trifluorobutanoyl)-5,6,7,8-tetrahydroimidazo[1,2-a]pyrazin-3-yl)imidazo[1,2-b]pyridazin-2-yl)isonicotinamide] | 6.5 nM | 1.2 nM |
| CC(C)C(=O)N1CCn2c(nc(-c3ccc(F)cc3)c2-c2ccc3nc(NC(=O)c4ccnc(F)c4)cn3n2)C1 [Compound 463, 2-Fluoro-N-(6-(2-(4-fluorophenyl)-7-isobutyryl-5,6,7,8-tetrahydroimidazo[1,2-a]pyrazin-3-yl)imidazo[1,2-b]pyridazin-2-yl)isonicotinamide] | 3.8 nM | 0.5 nM |
